Experimental data taken from patent publication US7727972B2, “Methods for determining absorption of cobalamin or analogues thereof” (DrugTech Corporation, priority 2004, dated 2010).

Tested on: Anti haptocorrin antibodies (ELISA)
Assay: Cross-reactivity of the haptocorrin ELISA towards other cobalamin binding proteins
Design: species or system rabbit
Settings: 60 nmol/L in the assay mixture
Experimental: Antibodies. Anti haptocorrin was produced by DakoCytomation A/S, Denmark by immunising rabbits with 200 μg pure haptocorrin produced as previously described (12) and deglycosylated as described above. The gamma globulin fraction was pre-pared (13) from serum obtained after 7 immunisations.
ELISA. The principle of the ELISA assay used was an immobilised capture antibody (0.1 ug gamma globulin/well, rabbit nr F7773) catching the analyte and a biotinylated detection antibody (gamma globulin 3 ug/L, rabbit nr 7772) visualised by avidin/Horse Radish Peroxidase (HRP). Colour development by addition of 3,3′,5,5′-tetramethyl-benzidin was proportional to the concentration of analyte. The assay procedure was as previously described for transcobalamin (14, 15). In brief, calibrator, sample or control (100 μL, final dilution 1:30) was incubated for 1 hour at room temperature prior to washing and incubation for 30 min with the biotinylated detection antibody. The attached biotinylated antibody was detected employing avidin/HRP and colour development was determined by measuring the absorbance at 420 nm and correcting for the absorbance at 620 nm. The calibrator employed was deglycosylated pure human haptocorrin. All samples were run in true duplicates, where deglycosylation was performed on two independent samples.
Samples. […]

intrinsic factor: cobalamin binding protein; pure IF dissolved in phosphate buffer 0.1 M containing albumin 0.1%
cross-reactivity in haptocorrin ELISA: No cross-reactivity
